Experiment [1] relates to K. pneomoniae S48 (NDM, SHV, TEM). In words: Antibacterial activity, MIC by agar dilution (CLSI). It counts as cell-based, K. pneumoniae. The settings on record: Klebsiella pneumoniae. On the procedure: (§1) The biological activity of representative compounds according to the invention against various bacterial strains was investigated. In a typical study, overnight grown bacterial cultures were diluted appropriately and inoculated on the agar media containing doubling dilutions of the test compounds. Observations for growth or no growth was performed after 16-20 hours of incubation at 35±2° C. in the ambient air. The overall procedure was performed as per Clinical and Laboratory Standards Institute (CLSI) recommendations, (Clinical and Laboratory Standards Institute (CLSI), Performance Standards for Antimicrobial Susceptibility Testing, 20th Informational Supplement, M07-A9, Volume 32, No. 2, 2012). Molten Mueller Hinton Agar (BD, USA) containing serial dilutions of each antibacterial agent were poured on to the plates and allowed to solidify. Appropriate suspensions from the freshly grown cultures were prepared in normal saline so that about 10^4 CFU/spot of the organism was delivered on to the drug containing agar plates using automated multipoint inoculator (Mast, UK). The plates were incubated in Biochemical oxygen demand (BOD) incubator at 37° C. for 18 hours and then examined for growth.
(§2) The strains selected for study included E. coli NCTC 13353 producing CTX-M15 and OXA-1 beta-lactamase enzymes; K. pneumoniae H521 producing KPC, SHV, TEM beta-lactamase enzymes; and K. pneumoniae S48 producing NDM, SHV, TEM beta-lactamase enzymes. The activities are expressed as Minimum Inhibitory Concentrations (MICs) (mcg/ml).
Background: In agar dilution, organisms are placed on agar that contains the substance at set levels.

In experiment [2] the test system is K. pneumoniae H521 (KPC, SHV, TEM). Described as above. In kind it is cell-based. As to conditions: Klebsiella pneumoniae. The protocol: as §1, §2
In experiment [3] the target is T1, Class A beta-lactamase, K. pneumoniae ATCC 700603 (SHV 18) (Klebsiella pneumoniae, UniProt P0AD64, E235K/G234A/R39S).
T1 construct: preincubated mixture of crude enzyme and the agents; endogenous in cells; host or cells: K. pneumoniae ATCC 700603
T1 sequence (P0AD64 22-286 R39S/G234A/E235K): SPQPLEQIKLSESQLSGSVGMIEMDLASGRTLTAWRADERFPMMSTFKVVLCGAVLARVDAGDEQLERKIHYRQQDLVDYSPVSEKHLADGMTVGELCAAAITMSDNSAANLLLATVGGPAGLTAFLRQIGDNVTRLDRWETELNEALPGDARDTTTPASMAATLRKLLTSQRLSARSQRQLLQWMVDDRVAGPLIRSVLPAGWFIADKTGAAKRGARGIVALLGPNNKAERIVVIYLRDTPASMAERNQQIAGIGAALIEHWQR
In words: biochemical. The protocol:
(§3) Determination of enzyme inhibition activity: Concentration of the inhibitor required to inhibit 50% of enzymatic activity was measured by adding a chromogenic substrate, Nitrocefin (100 uM, 5 min) to the preincubated mixture of crude enzyme and the agents (37° C., 10 min). Absorbance was measured at 485 nm by UV-spectrophotometer. The IC50 was calculated by plotting absorbance against concentration through Sigmoidal dose response curve using Graph Pad software.
(§4) The enzyme inhibition was expressed as IC50.

In experiment [4] the target is T2, Class D beta-lactamase, A. baumannii NCTC 13301 (OXA 23) (Acinetobacter baumannii, UniProt Q9L4P2).
T2 construct: preincubated mixture of crude enzyme and the agents; endogenous in cells; host or cells: A. baumannii NCTC 13301
T2 sequence (Q9L4P2 18-273): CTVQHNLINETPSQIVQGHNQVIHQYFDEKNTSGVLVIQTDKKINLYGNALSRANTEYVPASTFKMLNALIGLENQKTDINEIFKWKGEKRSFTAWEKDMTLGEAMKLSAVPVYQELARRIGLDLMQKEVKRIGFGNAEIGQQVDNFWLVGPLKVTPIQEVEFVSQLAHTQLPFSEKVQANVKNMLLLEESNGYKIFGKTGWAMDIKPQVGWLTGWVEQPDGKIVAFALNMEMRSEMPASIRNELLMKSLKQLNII
In words: Beta-lactamase enzyme inhibition (nitrocefin, crude enzyme). It counts as biochemical. The protocol: as §3, §4

The subject of experiment [5] is E. coli NCTC 13353 (CTX-M15, OXA-1). In words: Antibacterial activity, MIC by agar dilution (CLSI). The settings on record: Escherichia coli. In kind it is cell-based. On the procedure: as §1
Table 2 details the antibacterial activity of representative compounds according to invention, against various Multi Drug Resistant (MDR) Gram-negative bacterial strains. The strains selected for study included E. coli NCTC 13353 producing CTX-M15 and OXA-1 beta-lactamase enzymes; K. pneumoniae H521 producing KPC, SHV, TEM beta-lactamase enzymes; and K. pneumoniae S48 producing NDM, SHV, TEM beta-lactamase enzymes. The activities are expressed as Minimum Inhibitory Concentrations (MICs) (mcg/ml).

Where [6] appears, read: Table 2, K. pneomoniae S48 (NDM, SHV, TEM), read-out: MIC.
Setting [7] is: Table 2, K. pneumoniae H521 (KPC, SHV, TEM), read-out: MIC.
The mark [8] stands for this setting: Class D A. baumannii NCTC 13301 (OXA 23), read-out: Beta-lactamase enzyme inhibition IC50.
Where [9] appears, read: NCTC13353, Table 2, E. Coli NCTC 13353 (CTX-M15, OXA-1), read-out: MIC.
[10] abbreviates: 18 h, Table 2, K. pneomoniae S48 (NDM, SHV, TEM), read-out: MIC.
[11] abbreviates: 18 h, Table 2, K. pneumoniae H521 (KPC, SHV, TEM), read-out: MIC.
Where [12] appears, read: NCTC13353, 18 h, Table 2, E. Coli NCTC 13353 (CTX-M15, OXA-1), read-out: MIC.

SMILES strings stand for the structures. In brackets after ≈: the same amount, converted by molar mass. Structures can show the parent of a compound that is named as a salt. Where two headings read alike, the source gives them in different places.

As usually defined, the MIC is the least concentration at which growth counts as inhibited. The IC50 is the point on the concentration scale where inhibition reaches its midpoint.

Consider `O=C(Cc1ccc(OC(=O)NC2CCCCC2)cc1)NNC(=O)[C@@H]1CC[C@@H]2CN1C(=O)N2OS(=O)(=O)O` [Example 28, sodium salt of (2S,5R)-cyclohexyl-carbamic acid 4-{2-oxo-2-[N′-(7-oxo-6-sulphooxy-1,6-diaza-bicyclo[3.2.1]octane-2-carbonyl)-hydrazino]ethyl}-phenyl ester], for which the minimal inhibitory concentration (MIC) amounted to 16 µg/mL in experiment [1] (18 h); 32 µg/mL in experiment [2] (18 h); 8 µg/mL in experiment [5] (NCTC13353, 18 h). For the same compound, the concentration for half-maximal inhibition (IC50) was determined as 8 nM in experiment [3] and 243 nM in experiment [4].
As for `O=C(Cc1ccc(O[C@H]2CCNC2)cc1)NNC(=O)[C@@H]1CC[C@@H]2CN1C(=O)N2OS(=O)(=O)O` [Example 64], the MIC in experiment [1] (setting [6]) came to 0.5 µg/mL (≈ 1.03 µM); in experiment [2] (setting [7]), 1 µg/mL (≈ 2.07 µM); in experiment [5] (setting [9]) it was 0.5 µg/mL (≈ 1.03 µM). The IC50 is 47 nM in experiment [3] and 432 nM in experiment [4] (setting [8]).
For the compound `COc1ccc(CC(=O)NNC(=O)[C@@H]2CC[C@@H]3CN2C(=O)N3OS(=O)(=O)O)cc1` [Example 14, sodium salt of (2S,5R)-sulfuric acid mono-[2-(N′-(4-methoxyphenyl-acetyl)-hydrazinocarbonyl)-7-oxo-1,6-diaza-bicyclo[3.2.1]oct-6-yl]ester], the MIC was determined as 1 µg/mL in experiment [1] (setting [10]), 8 µg/mL in experiment [2] (setting [11]) and 1 µg/mL in experiment [5] (setting [12]). The half-inhibitory concentration (IC50) in experiment [4] (setting [8]) amounted to 105 nM.
On to `O=C(Cc1ccccn1)NNC(=O)[C@@H]1CC[C@@H]2CN1C(=O)N2OS(=O)(=O)O` [Example 8, Sodium salt of (2S,5R)-Sulfuric acid mono-[2-(N′-(pyridine-2-yl-acetyl)-hydrazinocarbonyl)-7-oxo-1,6-diaza-bicyclo[3.2.1]oct-6-yl] ester], for which the figures for the MIC in experiment [1] (setting [6]), in experiment [2] (setting [7]) and in experiment [5] (setting [9]) were 0.5 µg/mL, 2 µg/mL and 0.5 µg/mL, respectively. In addition, the figures for the half-inhibitory concentration (IC50) in experiment [3] and in experiment [4] (setting [8]) were 25 nM and 466 nM, respectively.
`CNCCOc1ccccc1CC(=O)NNC(=O)[C@@H]1CC[C@@H]2CN1C(=O)N2OS(=O)(=O)O` [Example 36, (2S,5R)-sulfuric acid mono-[2-(N′-{2-[2-(2-N-methylamino-ethoxy)-phenyl]-acetyl}-hydrazinocarbonyl)-7-oxo-1,6-diaza-bicyclo[3.2.1]oct-6-yl]ester]: the MIC is 1 µg/mL (≈ 2.12 µM) in experiment [1] (setting [10]), 2 µg/mL (≈ 4.24 µM) in experiment [2] (setting [11]) and 1 µg/mL (≈ 2.12 µM) in experiment [5] (setting [12]). Moreover, the results for the IC50 in experiment [3] and in experiment [4] (setting [8]) were 71 nM and 2170 nM, respectively.
On to `CN(C)c1ccc(CC(=O)NNC(=O)[C@@H]2CC[C@@H]3CN2C(=O)N3OS(=O)(=O)O)cc1` [Example 13, sodium salt of (2S,5R)-sulfuric acid mono-[2-(N′-(4-N,N-dimethylaminophenyl-acetyl)-hydrazinocarbonyl)-7-oxo-1,6-diaza-bicyclo[3.2.1]oct-6-yl]ester], for which the MIC in experiment [1] (setting [10]) was 8 µg/mL; in experiment [2] (setting [11]), above 32 µg/mL; in experiment [5] (setting [12]) it was 8 µg/mL. Also, the IC50 in experiment [3] is 62 nM; in experiment [4] (setting [8]), 629 nM.
`O=C(Cc1cccc(O)c1)NNC(=O)[C@@H]1CC[C@@H]2CN1C(=O)N2OS(=O)(=O)O` [Example 20, sodium salt of (2S,5R)-sulfuric acid mono-[2-(N′-(3-hydroxyphenyl-acetyl)-hydrazinocarbonyl)-7-oxo-1,6-diaza-bicyclo[3.2.1]oct-6-yl]ester]: the minimal inhibitory concentration (MIC) in experiment [1] (18 h) is 0.5 µg/mL; in experiment [2] (18 h), 1 µg/mL; in experiment [5] (NCTC13353, 18 h) it was 0.5 µg/mL. For the same compound, the IC50 is 12 nM in experiment [3] and 249 nM in experiment [4] (setting [8]).
Turning to `O=C(Cc1ccccc1O)NNC(=O)[C@@H]1CC[C@@H]2CN1C(=O)N2OS(=O)(=O)O` [Example 19, sodium salt of (2S,5R)-sulfuric acid mono-[2-(N′-(2-hydroxyphenyl-acetyl)-hydrazinocarbonyl)-7-oxo-1,6-diaza-bicyclo[3.2.1]oct-6-yl]ester], the values for the MIC in experiment [1] (setting [10]), in experiment [2] (setting [11]) and in experiment [5] (setting [12]) were 2 µg/mL, 2 µg/mL and 1 µg/mL, respectively. Besides, the concentration for half-maximal inhibition (IC50) was found to be 13 nM in experiment [3] and 677 nM in experiment [4] (setting [8]).
As for `O=C(CCCc1ccccc1)NNC(=O)[C@@H]1CC[C@@H]2CN1C(=O)N2OS(=O)(=O)O` [Example 6, sodium salt of (2S,5R)-sulfuric acid mono-[2-(N′-(4-phenyl-butanoyl)-hydrazinocarbonyl)-7-oxo-1,6-diaza-bicylo[3.2.1]oct-6-yl]ester], the MIC in experiment [1] (setting [10]) was 32 µg/mL; in experiment [2] (setting [11]), above 32 µg/mL; in experiment [5] (setting [12]) it was 16 µg/mL. Moreover, in experiment [4] (setting [8]), the IC50 worked out at 207 nM.
For the compound `CCOc1ccccc1CC(=O)NNC(=O)[C@@H]1CC[C@@H]2CN1C(=O)N2OS(=O)(=O)O` [Example 15, sodium salt of (2S,5R)-sulfuric acid mono-[2-(N′-(2-ethoxyphenyl-acetyl)-hydrazinocarbonyl)-7-oxo-1,6-diaza-bicyclo[3.2.1]oct-6-yl]ester], the MIC in experiment [1] (setting [10]), in experiment [2] (setting [11]) and in experiment [5] (setting [12]) was above 32 µg/mL throughout. The half-inhibitory concentration (IC50) in experiment [3] amounted to 49 nM; in experiment [4] (setting [8]), 210 nM.
As to `O=C(Cc1ccccc1)NNC(=O)[C@@H]1CC[C@@H]2CN1C(=O)N2OS(=O)(=O)O` [Example 4], the MIC was 2 µg/mL (≈ 5.02 µM) in experiment [1] (18 h); above 32 µg/mL in experiment [2] (18 h); 1 µg/mL (≈ 2.51 µM) in experiment [5] (NCTC13353, 18 h). The concentration for half-maximal inhibition (IC50) is 19 nM in experiment [3] and 416 nM in experiment [4] (setting [8]).
As to `CC(C)[C@H](NC(=O)Oc1ccc(CC(=O)NNC(=O)[C@@H]2CC[C@@H]3CN2C(=O)N3OS(=O)(=O)O)cc1)C(=O)OC(C)(C)C` [Example 29, sodium salt of (S)-3-methyl-2-(4-{2-oxo-2-[N′-((2S,5R)-7-oxo-6-sulphooxy-1,6-diaza-bicyclo[3.2.1]-octane-2-carbonyl)-hydrazino]-ethyl}-phenoxycarbonylamino)-butyric acid tert-butyl ester], the MIC in experiment [1] amounted to 4 µg/mL; in experiment [2] it was 16 µg/mL; in experiment [5] (NCTC13353), 4 µg/mL. Besides, the IC50 in experiment [3] came to 327 nM; in experiment [4], 2850 nM.
As to `O=C(CCc1ccccc1)NNC(=O)[C@@H]1CC[C@@H]2CN1C(=O)N2OS(=O)(=O)O` [Example 5], the MIC was 8 µg/mL (≈ 19.4 µM) in experiment [1] (setting [10]), above 32 µg/mL in experiment [2] (setting [11]) and 8 µg/mL (≈ 19.4 µM) in experiment [5] (setting [12]). In addition, the half-maximal inhibitory concentration (IC50) in experiment [3] was 9 nM; in experiment [4] (setting [8]) it was 600 nM.
For the compound `CNCCOc1cccc(CC(=O)NNC(=O)[C@@H]2CC[C@@H]3CN2C(=O)N3OS(=O)(=O)O)c1` [Example 37, (2S,5R)-sulfuric acid mono-[2-(N′-{2-[3-(2-N-methylamino-ethoxy)-phenyl]-acetyl}-hydrazinocarbonyl)-7-oxo-1,6-diaza-bicyclo[3.2.1]oct-6-yl]ester], the minimal inhibitory concentration (MIC) in experiment [1] (setting [10]) turned out to be 0.5 µg/mL (≈ 1.06 µM); in experiment [2] (setting [11]), 1 µg/mL (≈ 2.12 µM); in experiment [5] (setting [12]), 0.5 µg/mL (≈ 1.06 µM). Moreover, the values for the IC50 in experiment [3] and in experiment [4] (setting [8]) were 36 nM and 938 nM, respectively.
Turning to `NC(=O)[C@@H]1CC[C@@H]2CN1C(=O)N2OS(=O)(=O)O` [Avibactam, avibactam, reference compound], 98 nM corresponded to half-maximal inhibition in experiment [3] (IC50).
Consider `O=C(Cc1ccc(Cl)cc1)NNC(=O)[C@@H]1CC[C@@H]2CN1C(=O)N2OS(=O)(=O)O` [Example 9, sodium salt of (2S,5R)-sulfuric acid mono-[2-(N′-(4-chlorophenyl-acetyl)-hydrazinocarbonyl)-7-oxo-1,6-diaza-bicyclo[3.2.1]oct-6-yl]ester], for which the MIC in experiment [1] (18 h) came to 1 µg/mL; in experiment [2] (18 h) it was 4 µg/mL; in experiment [5] (NCTC13353, 18 h), 1 µg/mL. Moreover, the IC50 in experiment [4] (setting [8]) worked out at 173 nM.

The values above are taken from patent US9822115B2, “Nitrogen containing compounds and their use as antibacterial agents” (WOCKHARDT LIMITED, priority 2014, dated 2017).
